Experimental data taken from patent US7575889B2, “Compound combinations for inhibiting cell division and methods for their identification and use” (President and Fellows of Harvard College, priority 2001, dated 2009).
Values after ≈ are worked out from the molar mass of the structure shown. Like-named read-outs stand apart in the source and are kept apart here.

Tests used:
[1] = tested on: E. coli strain DRC39; experiment: Combination anti-bacterial treatment at sub-MIC concentrations, growth of DRC39; assay type: cell-based; conditions: for reduction of the MIC when combined with sub-MIC 26E-10: DRC39
Procedure: Cell growth was assessed by visual inspection of cells incubated in culture tubes in this experiment and in the second, third, and fourth experiments described in this Example. In the fifth experiment growth was measured by reading optical density (OD600) using a multiwell plate reader. Cells were inoculated at a low concentration (1-2×10^5 cells/ml), such that the medium appeared clear.

[2] = target: FtsZ GTPase activity (Escherichia coli, UniProt P0A9A6); conditions: at the concentrations tested
FtsZ GTPase activity, sequence (P0A9A6 whole entry): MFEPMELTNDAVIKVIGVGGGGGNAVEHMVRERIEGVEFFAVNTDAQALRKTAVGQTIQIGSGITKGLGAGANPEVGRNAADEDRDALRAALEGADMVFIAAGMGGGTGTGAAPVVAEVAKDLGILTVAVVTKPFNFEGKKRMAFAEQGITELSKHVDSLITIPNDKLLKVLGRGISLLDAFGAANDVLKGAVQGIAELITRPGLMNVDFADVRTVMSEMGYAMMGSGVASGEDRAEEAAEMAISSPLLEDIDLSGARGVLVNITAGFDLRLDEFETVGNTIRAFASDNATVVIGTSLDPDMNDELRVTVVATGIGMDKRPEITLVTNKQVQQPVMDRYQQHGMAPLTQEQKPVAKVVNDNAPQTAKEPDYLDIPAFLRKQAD

[3] = target: M. tuberculosis FtzZ (FtsZMt) GTPase (Mycobacterium tuberculosis, UniProt P9WN95); experiment: Malachite green-phosphomolybdate assay of FtsZ GTPase activity (M. tuberculosis FtsZ); assay type: biochemical; conditions: 5 min preincubation at 30° C., 1 mM GTP, averages from three determinations
M. tuberculosis FtzZ (FtsZMt) GTPase, sequence (P9WN95 whole entry): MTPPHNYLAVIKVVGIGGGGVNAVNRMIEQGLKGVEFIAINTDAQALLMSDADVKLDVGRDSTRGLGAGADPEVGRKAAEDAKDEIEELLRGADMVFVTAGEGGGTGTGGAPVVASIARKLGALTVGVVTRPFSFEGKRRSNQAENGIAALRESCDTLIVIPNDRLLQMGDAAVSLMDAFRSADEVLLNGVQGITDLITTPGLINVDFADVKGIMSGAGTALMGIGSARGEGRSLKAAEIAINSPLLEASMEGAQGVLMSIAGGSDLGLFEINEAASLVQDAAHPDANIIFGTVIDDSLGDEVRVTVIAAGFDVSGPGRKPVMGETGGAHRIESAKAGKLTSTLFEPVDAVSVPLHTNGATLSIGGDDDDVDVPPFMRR

[4] = tested on: gram-negative and gram-positive bacteria; experiment: Antibacterial activity against gram-negative and gram-positive bacteria; assay type: cell-based
Procedure: FIG. 19 is a table illustrating the minimum inhibitory concentrations of FtsZ GTPase inhibitory compounds identified in vitro. The compounds were tested against a variety of gram-negative and gram-positive bacteria.

[5] = target: FtsZ protofilaments (Escherichia coli, UniProt P0A9A6); conditions: for effect on FtsZ polymers (class of inhibitor): electron micrographs, FIGS. 13-15
FtsZ protofilaments, sequence (P0A9A6 whole entry): as the sequence (P0A9A6 whole entry) above

[6] = tested on: FtsZ ring assembly in E. coli DRC39 cells; experiment: FtsZ ring assembly in vivo (FtsZ-GFP fluorescence microscopy) in DRC39 cells; assay type: cell-based
[7] = tested on: E. coli DRC39 (ΔacrAB::kan); conditions: for MIC: E. coli DRC39 (ΔacrAB::kan), MIC99, broth dilution
[8] = tested on: Clostridium perfringens; assay type: cell-based
[9] = tested on: DRC40/pBR-ftsZ+ cells; experiment: MIC and growth/phenotype, DRC40 with wild-type ftsZ in trans; assay type: cell-based, E. coli
[10] = tested on: B. cereus; experiment: Killing of B. cereus; assay type: cell-based
[11] = tested on: E. coli DRC42 (DRC39 recA::cat); experiment: MIC, E. coli DRC42
[12] = tested on: E. coli MC1000 (wild-type); experiment: MIC, broth dilution, E. coli MC1000; conditions: MIC99, broth dilution
[13] = tested on: E. coli DRC40 (DRC39 ftsZ84); experiment: MIC and growth/phenotype, E. coli DRC40

SMILES: CCN1C(=Cc2ccc3c4ccccc4ccc3[n+]2CC)C=Cc2ccccc21.Cc1ccc(S(=O)(=O)[O-])cc1 [7N-12]
- amount of growth relative to the absence of compound ([1]; individually, 0.3 μM): 98%
- growth inhibition ([1]; individually, 0.3 μM): 2%
- effect on FtsZ GTPase activity in vitro [2]: inhibit FtsZ GTPase activity

SMILES: C=CCOc1c(Br)cc(S(=O)(=O)c2cc(Br)c(O)c(Br)c2)cc1Br [18M-04]
- IC50 [3]: > 100 µM
- activity against gram positive and gram negative bacteria [4]: kills gram positives
- effect on FtsZ GTPase activity in vitro [2]: reproducibly and robustly inhibited FtsZ GTPase activity
- effect on FtsZ protofilament assembly in vitro [5]: destabilizers of FtsZ protofilament assembly
- effect on FtsZ polymers (class of inhibitor) [5]: dose dependent destabilizing effect on the polymers

SMILES: Nc1c(C=Cc2cc3cc(C4=NCCN4)ccc3o2)[nH]c2cc(C3=NCCN3)ccc12 [58P-18]
- FtsZ ring in treated cells ([6]; 40 μM, DRC39 cells): none of the treated cells appear to contain a medial FtsZ ring
- time to start of cell elongation ([6]; 40 μM, DRC39 cells): ≤ 60 min
- reduction of the MIC when combined with sub-MIC 26E-10 [1]: ≥ 2 fold
- effect on FtsZ GTPase activity in vitro [2]: inhibit FtsZ GTPase activity
- effect on FtsZ GTPase activity in vitro ([2]; listed as 58-P18): reproducibly and robustly inhibited FtsZ GTPase activity
- effect on FtsZ polymers (class of inhibitor) [5]: cause bundling of FtsZ protofilaments
- MIC [7]: 80 µM (≈ 32.8 µg/mL)

SMILES: CCN(CC)CCNc1nc(C=Cc2ccc(Cl)cc2)nc2cc3ccccc3cc12 [16L-09]
- reduction of the MIC when combined with sub-MIC 26E-10 [1]: 4 fold
- effect on FtsZ GTPase activity in vitro [2]: inhibit FtsZ GTPase activity
- effect on FtsZ GTPase activity in vitro ([2]; listed as 16-L09): reproducibly and robustly inhibited FtsZ GTPase activity
- effect on FtsZ polymers (class of inhibitor) [5]: cause bundling of FtsZ protofilaments
- MIC [7]: 10 µM (≈ 4.31 µg/mL)

SMILES: CC[n+]1ccc(/C=C/N(C)c2ccccc2)c2ccccc21.[I-] [26E-10]
- phenotype and growth ([8]; 80 μM, anaerobic conditions): filamentation phenotype in the presence of 80 μM 26E-10 without any overt effect on cell growth
- phenotype ([8]; Clostridium perfringens): filaments
- cell density and filamentation versus DRC40/pBR322 ([9]; DRC40/pBR-ftsZ+, 5 μM): higher cell density and less pronounced filamentation
- MIC ([9]; DRC40 with wild-type ftsZ provided in trans (pBR-ftsZ+)): 10 µM
- cell length (filamentation) ([6]; 10 μM (MIC), DRC39, within 60 min of treatment): ~4 ×
- Z-rings in elongated cells ([6]; 10 μM, DRC39, 60 min): markedly reduced in number and diminished in intensity
- Z-rings after 90 min treatment ([6]; DRC39, 90 min): most of the cells were devoid of distinct Z-rings
- amount of growth relative to the absence of compound ([1]; singly, 5 μM, OD600): 41%
- growth inhibition ([1]; singly, 5 μM, OD600): 59%
- killing of B. cereus [10]: efficiently killed
- growth and morphology ([7]; DRC39, 5 μM, 30° C.): mixture of filaments of varying lengths and short cells present at a low density
- MIC [7]: 10 µM
- MIC [11]: 10 µM
- MIC [12]: >40 µM
- growth ([13]; DRC40/pBR322, 5 μM, 30° C.): absolutely no growth
- MIC ([13]; E. coli DRC40 (DRC39 ftsZ84), slight turbidity believed to be unlysed filaments): 2.5 µM

SMILES: CCN1C(=Cc2ccc3ccccc3[n+]2CC)C=Cc2ccccc21.[Cl-] [3G-09]
- amount of growth relative to the absence of compound ([1]; alone, 0.375 μM, OD600): 92%
- growth inhibition ([1]; alone, 0.375 μM, OD600): 8%
- effect on FtsZ GTPase activity in vitro [2]: apparently do not affect FtsZ GTPase activity
- MIC [7]: 6 µM

SMILES: Oc1ccc(Cl)cc1Cc1cc(Cl)cc(Cc2cc(Cl)ccc2O)c1O [27D-12]
- activity against gram positive and gram negative bacteria [4]: effective against gram positive bacteria at very low concentrations and also kills gram negative species
- effect on FtsZ GTPase activity in vitro [2]: inhibit FtsZ GTPase activity
- effect on FtsZ GTPase activity in vitro ([2]; listed as 27-D12): reproducibly and robustly inhibited FtsZ GTPase activity
- effect on FtsZ polymers (class of inhibitor) [5]: dose dependent destabilizing effect on the polymers
- MIC [7]: 20 µM (≈ 8.19 µg/mL)

SMILES: CC[n+]1c(/C=C/N(C)c2ccccc2)n(-c2ccccc2)c2ccc(-c3nc4ccccc4s3)cc21 [27F-02]
- IC50 [3]: 70 µM
- reduction of the MIC when combined with sub-MIC 26E-10 [1]: 5 fold
- effect on FtsZ GTPase activity in vitro [2]: inhibit FtsZ GTPase activity
- effect on FtsZ GTPase activity in vitro ([2]; listed as 27-F02): reproducibly and robustly inhibited FtsZ GTPase activity
- effect on FtsZ protofilament assembly in vitro [5]: destabilizers of FtsZ protofilament assembly
- effect on FtsZ polymers (class of inhibitor) [5]: cause bundling of FtsZ protofilaments
- MIC [7]: 5 µM
